Data on two molecules can be found in patent US4539429A, “Substituted aminophenylalkyl ketones, their preparation and use” (Sterling Drug Inc., priority 1983, dated 1985).

Where two headings read alike, the source gives them in different places. Bounds are passed on as bounds.

For orientation: inhibition means the percentage by which the read-out fell short of the control. As usually defined, the IC50 is the midpoint of a concentration-inhibition curve. The low end stands for greater potency, the high end for weaker potency. As a reminder, the ED50 is the dose at which the effect has come halfway, by size or by number of responders.

In assay [1] the target is T1, cyclooxygenase (Rattus norvegicus, UniProt Q63921).
T1 construct: Single cell suspensions of RBL-1 cells are homogenized to obtain the microsomal fraction containing lipoxygenase and cyclooxygenase; endogenous in cells; host or cells: RBL-1 (rat basophilic leukemia) cells
T1 sequence (Q63921 27-602): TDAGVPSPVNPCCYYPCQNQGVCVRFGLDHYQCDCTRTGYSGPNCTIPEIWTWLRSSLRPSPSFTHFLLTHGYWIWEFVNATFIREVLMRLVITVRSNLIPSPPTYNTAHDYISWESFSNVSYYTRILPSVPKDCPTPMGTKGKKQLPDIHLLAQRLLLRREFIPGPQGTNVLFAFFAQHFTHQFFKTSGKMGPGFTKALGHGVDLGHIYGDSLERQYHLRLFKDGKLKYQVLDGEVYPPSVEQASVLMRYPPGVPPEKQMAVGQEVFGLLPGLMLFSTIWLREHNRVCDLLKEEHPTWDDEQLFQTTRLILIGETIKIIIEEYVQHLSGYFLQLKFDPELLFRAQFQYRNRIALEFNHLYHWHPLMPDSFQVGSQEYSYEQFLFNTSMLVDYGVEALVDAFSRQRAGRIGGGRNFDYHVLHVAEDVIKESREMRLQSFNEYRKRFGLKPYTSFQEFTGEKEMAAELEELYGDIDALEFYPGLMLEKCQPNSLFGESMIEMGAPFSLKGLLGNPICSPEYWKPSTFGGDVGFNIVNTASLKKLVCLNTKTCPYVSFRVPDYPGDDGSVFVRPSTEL
The experiment in a line: Inhibition of cyclooxygenase from rat basophilic leukemia (RBL-1) cells (formation of PGD2, C1). Type of assay: biochemical. The note with it: cyclooxygenase product PGD2 (C1); for inhibition at 1 µM: read-out: % Inhibition of cyclooxygenase (Cl) formation. The method, then:
(§1) The primary screening test used is a determination of the inhibition of lipoxygenase and cyclooxygenase derived from rat basophilic leukemia (RBL-1) cells. The test was carried out according to the following procedure:
(§2) Single cell suspensions of RBL-1 cells are homogenized to obtain the microsomal fraction containing lipoxygenase and cyclooxygenase. Test compounds are added to the enzyme-containing homogenate for a 5 min preincubation period at 37° C. prior to the additon of ^14 C-arachidonic acid substrate. Following incubation at 37° C. for 15 min, the reaction is stopped by the addition of 2M formic acid and the enzyme-substrate products are extracted into chloroform. An aliquot of the extract is evaporated to dryness, reconstituted in ether to 1/10 original volume, spotted on thin layer chromatography plates and chromatographed. The peak areas of radioactivity representing the products are located by scanning the plates. The quantity of products formed is estimated by measuring the height of the radioactivity peaks observed on the chromatographic scans. Alternatively, the areas of radioactivity are scraped from the plate and the ^14 C quantitated by scintillation counting.

Assay [2] addresses T2, lipoxygenase (Rattus norvegicus, UniProt P12527).
T2 construct: Single cell suspensions of RBL-1 cells are homogenized to obtain the microsomal fraction containing lipoxygenase and cyclooxygenase; endogenous in cells; host or cells: RBL-1 (rat basophilic leukemia) cells
T2 sequence (P12527 1-673): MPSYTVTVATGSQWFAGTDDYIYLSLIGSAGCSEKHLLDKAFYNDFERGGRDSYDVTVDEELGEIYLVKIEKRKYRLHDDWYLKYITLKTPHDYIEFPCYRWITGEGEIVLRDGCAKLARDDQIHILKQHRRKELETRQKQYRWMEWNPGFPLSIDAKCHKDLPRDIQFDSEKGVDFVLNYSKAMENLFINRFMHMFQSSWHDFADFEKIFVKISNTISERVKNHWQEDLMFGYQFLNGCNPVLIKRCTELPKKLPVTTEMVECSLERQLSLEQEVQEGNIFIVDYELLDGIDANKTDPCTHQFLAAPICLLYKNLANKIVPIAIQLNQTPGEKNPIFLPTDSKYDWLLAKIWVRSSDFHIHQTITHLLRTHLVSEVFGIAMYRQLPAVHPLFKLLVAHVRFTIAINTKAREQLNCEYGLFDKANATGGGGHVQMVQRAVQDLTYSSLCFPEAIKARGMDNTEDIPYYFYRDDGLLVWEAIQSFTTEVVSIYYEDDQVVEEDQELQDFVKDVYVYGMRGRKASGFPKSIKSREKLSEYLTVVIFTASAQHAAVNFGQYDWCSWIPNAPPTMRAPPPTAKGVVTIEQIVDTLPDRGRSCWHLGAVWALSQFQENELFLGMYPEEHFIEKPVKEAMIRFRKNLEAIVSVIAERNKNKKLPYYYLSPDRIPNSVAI
Put plainly: Inhibition of lipoxygenase from rat basophilic leukemia (RBL-1) cells (formation of L1 5,12-di-HETE and L2 5-HETE). Type of assay: biochemical. The procedure: as §1, §2

For assay [3], the system named is SRS-A component of immunologically induced bronchoconstriction. The experiment in a line: Effect on the SRS-A component of immunologically induced bronchoconstriction in guinea pigs. Type of assay: in vivo, guinea pig. The procedure: The test was carried out according to the following procedure:
Two weeks after immunization with egg albumin, guinea pigs are prepared for bronchoconstriction determination. One hour prior to antigen challenge, each animal is dosed orally with indomethacin and chlorpheniramine. Animals are anesthetized with sodium pentobarbital, the trachea cannulated and the animal artifically respired. Arachidonic acid is administered intravenously prior to antigen challenge. The resulting bronchoconstriction is recorded by the standard lung overflow procedure and the peak increase in intratracheal pressure (mm Hg) over a 10 minute observation period is recorded. Compounds are evaluated for their ability to prevent the increased intratracheal pressure in an experimental group of animals as compared to the medicated (indomethacin+chlorpheniramine+arachidonic acid) control group. The results are expressed in terms of percent inhibition or as ED50 values (effective dose in 50% of the animals).

For the molecule `COc1ccc(Nc2ccc(O)cc2)c(C(C)=O)c1` [Example 1c, 1-[2-(4-Hydroxyphenylamino)-5-methoxyphenyl]ethanone], the inhibition at 1 µM in assay [1] amounted to 36%; in assay [2] (read-out: % Inhibition of lipoxygenase (L1) formation) it was 88%; in assay [2] (read-out: % Inhibition of lipoxygenase (L2) formation), 88%. Further, the IC50 was more than 1000 nM in assay [1] and 70 nM in assay [2]. The ED50 in assay [3] (Cavia porcellus, iv, indomethacin + chlorpheniramine pretreated, arachidonic acid i.v. before antigen challenge, read-out: In vivo Guinea Pig ED50) was determined as 2.7 mg/kg. For the same molecule, the “In vivo Guinea Pig % inhib.” value in assay [3] (at 1 mg/kg orally, increased intratracheal pressure vs medicated control group) was 52%.

With `CC(=O)c1ccccc1Nc1ccc(O)cc1` [Example 2c, 1-[2-(4-Hydroxyphenylamino)phenyl]ethanone], the inhibition at 1 µM in assay [1] turned out to be 9%; in assay [2] (1 μM, L1 = 5,12-di-HETE, read-out: % Inhibition of lipoxygenase (L1) formation), 61%; in assay [2] (1 μM, L2 = 5-HETE, read-out: % Inhibition of lipoxygenase (L2) formation), 72%.
